Laboratory results from PubChem BioAssay (NCI).
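Cells were grown in 96-well plates and exposed to each compound for 48 hours at five concentrations; endpoints were interpolated linearly between bracketing concentrations, or set to the highest concentration if not reached. The concentration for 50% growth inhibition is given as GI50. Definition used: TGI = concentration required for complete inhibition of growth.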

Legend:
Assay in all cases: NCI-60 cell line screen, 48 h
SNB-19 CNS = system: SNB-19 CNS
DU-145 prostate = system: DU-145 prostate
SNB-75 CNS = system: SNB-75 CNS
LOX IMVI melanoma = system: LOX IMVI melanoma
HCT-116 colon = system: HCT-116 colon
SF-295 CNS = system: SF-295 CNS
MDA-MB-231 breast = system: MDA-MB-231 breast
786-0 renal = system: 786-0 renal
SR leukemia = system: SR leukemia
NCI/ADR-RES ovarian = system: NCI/ADR-RES ovarian

| Structure (SMILES) | TGI (SNB-19 CNS) | TGI (DU-145 prostate) | TGI (SNB-75 CNS) | TGI (LOX IMVI melanoma) | TGI (HCT-116 colon) | TGI (SF-295 CNS) | TGI (MDA-MB-231 breast) | TGI (786-0 renal) | TGI (SR leukemia) | GI50 (SNB-19 CNS) | GI50 (NCI/ADR-RES ovarian) | TGI (NCI/ADR-RES ovarian) | GI50 (DU-145 prostate) | GI50 (SNB-75 CNS) | GI50 (LOX IMVI melanoma) | GI50 (HCT-116 colon) | GI50 (SF-295 CNS) | GI50 (MDA-MB-231 breast) | GI50 (786-0 renal) |
| --- | --- | --- | --- | --- | --- | --- | --- | --- | --- | --- | --- | --- | --- | --- | --- | --- | --- | --- | --- |
| COc1cc(/C=C/C(C)=O)ccc1OP(=O)(O)O | > 100 µM | > 100 µM | > 100 µM | > 100 µM | > 100 µM | > 100 µM | > 100 µM | > 100 µM |  |  |  |  |  |  |  |  |  |  |  |
| O=C(CCC(=O)Nc1ccc(Cl)cc1)CC(=O)c1ccc(F)cc1 | > 100 µM |  | > 100 µM | > 100 µM | > 100 µM | > 100 µM |  | > 100 µM | > 100 µM |  |  |  |  |  |  |  |  |  |  |
| CCN(CC)CCOc1ccc(/C=C2\CC3C4CCC5=CC(=O)CC[C@]5(C)C4CC[C@]3(C)C2=O)cc1OC (stereo partly drawn) | 22.7 µM | 16.4 µM | 7.78 µM | 4.43 µM | 4.45 µM | 4.06 µM | 6.17 µM | 4.61 µM |  | 4.03 µM | 3.22 µM | 13 µM | 3.26 µM | 3.02 µM | 1.89 µM | 1.85 µM | 2.01 µM | 2.55 µM | 2.18 µM |
| O=C1CCCC/C1=C/C=C/c1ccccc1 | > 100 µM | > 100 µM | > 100 µM | > 100 µM | > 100 µM | > 100 µM |  | > 100 µM |  |  |  |  |  |  |  |  |  |  |  |
| O=c1[nH]c(Br)nc2c(Br)c[nH]c12 | > 100 µM |  | > 100 µM | > 100 µM | > 100 µM | > 100 µM |  | > 100 µM |  |  |  |  |  |  |  |  |  |  |  |
| O=c1ccccc2cccc(O)c12 | > 100 µM |  | > 100 µM | > 100 µM | > 100 µM | > 100 µM |  | > 100 µM |  |  |  |  |  |  |  |  |  |  |  |
| COc1ccc2c3c1C(=O)CCC3CO2 (stereo not drawn) | > 100 µM |  |  | > 100 µM | > 100 µM | > 100 µM |  | > 100 µM |  |  |  |  |  |  |  |  |  |  |  |
| Brc1ccc([I+]c2ccc(Br)cc2)cc1 | 2.76 µM | 16.6 µM | 8.03 µM | 2.12 µM | 11.5 µM | 5.85 µM | 17 µM | 11.2 µM |  | 1.38 µM | > 100 µM | > 100 µM | 3.6 µM | 1.6 µM | 0.713 µM | 0.643 µM | 1.7 µM | 2.34 µM | 1.97 µM |
| CC1=CC(C)(C)N=C2SC(c3ccc(Cl)cc3)=NN12 | > 100 µM |  |  | > 100 µM |  | > 100 µM |  | 32.8 µM |  |  |  |  |  |  |  |  |  |  |  |
| CN(C)CCn1c2ccccc2c2nc3cc4ccccc4cc3nc21 | 27.7 µM |  |  | 15.6 µM | 16.9 µM | 17 µM |  | 16 µM |  |  |  |  |  |  |  |  |  |  |  |
| CCC[CH2][Sn]([CH2]CCC)([O]C(=O)c1cccc(F)c1)[O]C(=O)c1cccc(F)c1 | 1.39 µM |  | 1.94 µM | 2.99 µM | 2.55 µM | 2.86 µM |  | 2.49 µM |  | 0.369 µM |  |  |  | 0.657 µM | 0.605 µM | 1.29 µM | 1.48 µM |  | 1.19 µM |
| O=C(O)/C(=C/c1ccccc1[N+](=O)[O-])c1ccccc1 | > 100 µM |  | > 100 µM | > 100 µM | > 100 µM | > 100 µM |  | > 100 µM | > 100 µM |  |  |  |  |  |  |  |  |  |  |
